According to patent US20260242372A1, “NOVEL IMIDAZOPYRIDINE AND PYRAZOLOPYRIDINE SULFONAMIDE DERIVATIVES” (Hoffmann-La Roche Inc., priority 2022, published 2026):

biological target: human GPR17 short isoform (Homo sapiens, UniProt Q13304); test: GPR17 cAMP assay (hGPR17 cAMP, TR-FRET, antagonist mode); type: cell-based; conditions: CHO-K1 cells stably expressing human GPR17 short isoform; EC80 of agonist MDL29,951; forskolin 15 μM; 30 min at room temperature
Protocol: CHO-K1 cells stably expressing vector containing untagged human GPR17 short isoform (Roche) were cultured at 37° C./5% CO2 in DMEM (Dulbecco's Modified Eagle Medium): F-12 (1:1) supplemented with 10% foetal bovine serum and 400 μg/ml Geneticin.
Changes in intracellular cyclic adenosine monophosphate (cAMP) levels were quantified using the Nano-TRF Detection Assay kit (Roche Diagnostics, Cat. No. 05214386001). This assay allows for direct cAMP quantification in a homogeneous solution. CAMP is detected based on time-resolved fluorescence energy transfer (TR-FRET) and competitive binding of ruthenylated cAMP and endogenous cAMP to an anti-cAMP monoclonal antibody labeled with AlexaFluor-700. The Ruthenium complex serves as the FRET donor and transfers energy to AlexaFluor-700. The FRET signal is inversely proportional to the CAMP concentration.
CHO-GPR17S cells were detached with Accutase and resuspended in assay buffer consisting of Hank's Balanced Salt Solution (HBSS), 10 mM HEPES (4-(2-hydroxyethyl) piperazine-1-ethanesulfonic acid solution) and 0.1% bovine serum albumin (pH 7.4). The cells were seeded in black 384-well plates (Corning) at a density of 10′000 cells/20 μl assay buffer until the addition of compounds.
Test antagonist compounds were serially diluted in dimethyl sulfoxide (DMSO) and spotted in 384-well plates. The compounds were then diluted in HBSS buffer supplemented with an EC80 concentration of MDL29,951 (3-(2-Carboxy-4,6-dichloroindol-3-yl) propionic acid) (GPR17 agonist) plus 3-Isobutyl-1-methylxanthine (IBMX) (0.5 mM final concentration) and added to the cells at room temperature. Forskolin (15 μM final concentration) was added 5 minutes after the test compounds and the cells were incubated at room temperature for 30 minutes. The assay was stopped by adding cAMP detection mix (containing detergents for cell lysis) for 90 minutes at room temperature.
Cellular cAMP was measured using a Paradigm reader (Molecular Devices). The raw data was used to calculate the FRET signal based on the assay's P-factor as per cAMP kit instructions. The data was normalized to the maximal activity of a reference antagonist and dose response curves were fitted to the percent activity of the test compounds using a sigmoidal dose response model (Genedata Screener).

human GPR17 short isoform, sequence (Q13304 29-367): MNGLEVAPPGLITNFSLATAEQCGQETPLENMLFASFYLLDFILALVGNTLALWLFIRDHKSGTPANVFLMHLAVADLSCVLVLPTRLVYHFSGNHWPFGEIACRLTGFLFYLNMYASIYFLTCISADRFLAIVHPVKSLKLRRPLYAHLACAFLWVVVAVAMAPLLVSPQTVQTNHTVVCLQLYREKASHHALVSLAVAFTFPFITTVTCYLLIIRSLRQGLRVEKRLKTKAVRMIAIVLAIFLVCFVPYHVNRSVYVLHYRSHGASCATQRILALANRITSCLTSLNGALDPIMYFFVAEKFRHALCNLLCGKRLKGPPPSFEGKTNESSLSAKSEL

Row | SMILES | IC50 [nM]
1 | COc1nc(OCC(F)F)c(F)cc1NS(=O)(=O)c1cnc2cc(Br)ccn12 [Example 1, 7-bromo-N-[6-(2,2-difluoroethoxy)-5-fluoro-2-methoxy-3-pyridyl]imidazo[1,2-a]pyridine-3-sulfonamide] | 5
2 | COc1nc(OCC(F)F)c(F)cc1NS(=O)(=O)c1cnc2cc(C)ccn12 [Example 2, N-[6-(2,2-difluoroethoxy)-5-fluoro-2-methoxy-3-pyridyl]-7-methyl-imidazo[1,2-a]pyridine-3-sulfonamide] | 7
3 | COc1cc(CC#N)c(F)cc1NS(=O)(=O)c1cnc2cc(Br)ccn12 [Example 3, 7-bromo-N-[4-(cyanomethyl)-5-fluoro-2-methoxy-phenyl]imidazo[1,2-a]pyridine-3-sulfonamide] | 7
4 | COc1nc(OCC(F)F)c(F)cc1NS(=O)(=O)c1cnc2c(OC)c(C)ccn12 [Example 4, N-[6-(2,2-difluoroethoxy)-5-fluoro-2-methoxy-3-pyridyl]-8-methoxy-7-methyl-imidazo[1,2-a]pyridine-3-sulfonamide] | 8
5 | COc1nc(OCC(F)F)c(F)cc1NS(=O)(=O)c1cnc2cc(OC(F)F)ccn12 [Example 5, N-[6-(2,2-difluoroethoxy)-5-fluoro-2-methoxy-3-pyridyl]-7-(difluoromethoxy)imidazo[1,2-a]pyridine-3-sulfonamide] | 8
6 | COc1nc(OCC(F)F)c(F)cc1NS(=O)(=O)c1cnc2c(F)c(Cl)ccn12 [Example 7, 7-chloro-N-[6-(2,2-difluoroethoxy)-5-fluoro-2-methoxy-3-pyridyl]-8-fluoro-imidazo[1,2-a]pyridine-3-sulfonamide] | 9
7 | COc1nc(OC(F)F)c(F)cc1NS(=O)(=O)c1cnc2cc(Br)ccn12 [Example 8, 7-bromo-N-[6-(difluoromethoxy)-5-fluoro-2-methoxy-3-pyridyl]imidazo[1,2-a]pyridine-3-sulfonamide] | 9
8 | COc1nc(CCC(F)F)c(F)cc1NS(=O)(=O)c1cnc2cc(Cl)ccn12 [Example 9, 7-chloro-N-[6-(3,3-difluoropropyl)-5-fluoro-2-methoxy-3-pyridyl]imidazo[1,2-a]pyridine-3-sulfonamide] | 11
9 | COc1nc(NS(=O)(=O)c2cnc3cc(Br)ccn23)c(F)cc1CC(F)F [Example 10, 7-bromo-N-[5-(2,2-difluoroethyl)-3-fluoro-6-methoxy-2-pyridyl]imidazo[1,2-a]pyridine-3-sulfonamide] | 11
10 | COc1nc(CC(F)F)c(F)cc1NS(=O)(=O)c1cnc2cc(Cl)ccn12 [Example 11, 7-chloro-N-[6-(2,2-difluoroethyl)-5-fluoro-2-methoxy-3-pyridyl]imidazo[1,2-a]pyridine-3-sulfonamide] | 14
11 | COc1nc(OCC(F)F)c(F)cc1NS(=O)(=O)c1cnc2c(OC)c(Cl)ccn12 [Example 12, 7-chloro-N-[6-(2,2-difluoroethoxy)-5-fluoro-2-methoxy-3-pyridyl]-8-methoxy-imidazo[1,2-a]pyridine-3-sulfonamide] | 16
12 | COc1nc(OC(F)F)c(F)cc1NS(=O)(=O)c1cnc2cc(C)ccn12 [Example 13, N-[6-(difluoromethoxy)-5-fluoro-2-methoxy-3-pyridyl]-7-methyl-imidazo[1,2-a]pyridine-3-sulfonamide] | 18
13 | COc1nc(OCC(F)F)c(F)cc1NS(=O)(=O)c1cnc2cc(C(F)F)ccn12 [Example 14, N-[6-(2,2-difluoroethoxy)-5-fluoro-2-methoxy-3-pyridyl]-7-(difluoromethyl)imidazo[1,2-a]pyridine-3-sulfonamide] | 18
14 | COc1ccn2c(S(=O)(=O)Nc3cc(F)c(OCC(F)F)nc3OC)cnc2c1 [Example 15, N-[6-(2,2-difluoroethoxy)-5-fluoro-2-methoxy-3-pyridyl]-7-methoxy-imidazo[1,2-a]pyridine-3-sulfonamide] | 18
15 | COc1nc(OCC(F)F)c(F)cc1NS(=O)(=O)c1cnc2nc(C3CC3)ccn12 [Example 16, 7-cyclopropyl-N-[6-(2,2-difluoroethoxy)-5-fluoro-2-methoxy-3-pyridyl]imidazo[1,2-a]pyrimidine-3-sulfonamide] | 18
16 | CCc1ccn2c(S(=O)(=O)Nc3cc(F)c(OCC(F)F)nc3OC)cnc2c1 [Example 17, N-[6-(2,2-difluoroethoxy)-5-fluoro-2-methoxy-3-pyridyl]-7-ethyl-imidazo[1,2-a]pyridine-3-sulfonamide] | 18

Row | SMILES | IC50 [nM]
17 | COc1cc(CC#N)c(F)cc1NS(=O)(=O)c1cnc2nc(C3CC3)ccn12 [Example 18, N-[4-(cyanomethyl)-5-fluoro-2-methoxy-phenyl]-7-cyclopropyl-imidazo[1,2-a]pyrimidine-3-sulfonamide] | 19
18 | COc1nc(OC(F)F)c(F)cc1NS(=O)(=O)c1cnc2c(OC)c(C)ccn12 [Example 19, N-[6-(difluoromethoxy)-5-fluoro-2-methoxy-3-pyridyl]-8-methoxy-7-methyl-imidazo[1,2-a]pyridine-3-sulfonamide] | 19
19 | COc1cc(CC#N)c(F)cc1NS(=O)(=O)c1cnc2cc(C)ccn12 [Example 20, N-[4-(cyanomethyl)-5-fluoro-2-methoxy-phenyl]-7-methyl-imidazo[1,2-a]pyridine-3-sulfonamide] | 21
20 | COc1nc(NS(=O)(=O)c2cnc3cc(Br)ccn23)c(F)cc1CC#N [Example 21, 7-bromo-N-[5-(cyanomethyl)-3-fluoro-6-methoxy-2-pyridyl]imidazo[1,2-a]pyridine-3-sulfonamide] | 21
21 | COc1nc(CC#N)c(F)cc1NS(=O)(=O)c1cnc2cc(Cl)ccn12 [Example 22, 7-chloro-N-[6-(cyanomethyl)-5-fluoro-2-methoxy-3-pyridyl]imidazo[1,2-a]pyridine-3-sulfonamide] | 23
22 | COc1nc(OCC(F)F)c(F)cc1NS(=O)(=O)c1cnc2n1CCC(C)C2 (stereo not shown) [Example 23, N-[6-(2,2-difluoroethoxy)-5-fluoro-2-methoxy-3-pyridyl]-7-methyl-5,6,7,8-tetrahydroimidazo[1,2-a]pyridine-3-sulfonamide] | 23
23 | COc1nc(NS(=O)(=O)c2cnc3cc(Cl)ccn23)c(F)cc1CC(F)F [Example 24, 7-chloro-N-[5-(2,2-difluoroethyl)-3-fluoro-6-methoxy-2-pyridyl]imidazo[1,2-a]pyridine-3-sulfonamide] | 23
24 | COc1nc(C2CC2)c(F)cc1NS(=O)(=O)c1cnc2cc(Cl)ccn12 [Example 25, 7-chloro-N-(6-cyclopropyl-5-fluoro-2-methoxy-3-pyridyl)imidazo[1,2-a]pyridine-3-sulfonamide] | 23
25 | COc1nc(NS(=O)(=O)c2cnc3cc(Br)ccn23)c(F)cc1OC(F)F [Example 26, 7-bromo-N-[5-(difluoromethoxy)-3-fluoro-6-methoxy-2-pyridyl]imidazo[1,2-a]pyridine-3-sulfonamide] | 30
26 | COc1nc(OCC(F)F)c(F)cc1NS(=O)(=O)c1cnc2c(C#N)c(C)ccn12 [Example 27, 8-cyano-N-[6-(2,2-difluoroethoxy)-5-fluoro-2-methoxy-3-pyridyl]-7-methyl-imidazo[1,2-a]pyridine-3-sulfonamide] | 31
27 | COc1nc(OC(F)F)c(F)cc1NS(=O)(=O)c1cnc2nc(C3CC3)ccn12 [Example 28, 7-cyclopropyl-N-[6-(difluoromethoxy)-5-fluoro-2-methoxy-3-pyridyl]imidazo[1,2-a]pyrimidine-3-sulfonamide] | 31
28 | COc1ccn2c(S(=O)(=O)Nc3cc(F)c(OC(F)F)nc3OC)cnc2c1 [Example 29, N-[6-(difluoromethoxy)-5-fluoro-2-methoxy-3-pyridyl]-7-methoxy-imidazo[1,2-a]pyridine-3-sulfonamide] | 33
29 | COc1nc(OCC(F)F)c(F)cc1NS(=O)(=O)c1cnc2n1CCC(C)C2C (stereo not shown) [Example 30, N-[6-(2,2-difluoroethoxy)-5-fluoro-2-methoxy-3-pyridyl]-7,8-dimethyl-5,6,7,8-tetrahydroimidazo[1,2-a]pyridine-3-sulfonamide] | 35
30 | COc1nc(OCC(F)F)c(F)cc1NS(=O)(=O)c1cnc2cc(C(F)(F)F)ccn12 [Example 31, N-[6-(2,2-difluoroethoxy)-5-fluoro-2-methoxy-3-pyridyl]-7-(trifluoromethyl)imidazo[1,2-a]pyridine-3-sulfonamide] | 38
31 | COc1c(C)ccn2c(S(=O)(=O)Nc3cc(F)c(CC#N)cc3F)cnc12 [Example 32, N-[4-(cyanomethyl)-2,5-difluoro-phenyl]-8-methoxy-7-methyl-imidazo[1,2-a]pyridine-3-sulfonamide] | 40
